According to PubChem BioAssay (NCI):
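These data come from cells grown in 96-well plates and exposed to compound for 48 hours at five concentrations. GI50: concentration for 50% inhibition of growth. The concentration for full growth arrest is given as TGI.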

What was measured:
Assay in all cases: NCI anticancer screen, dose series, 48 h
[1] = tested on: SF-539 CNS
[2] = tested on: COLO 205 colon
[3] = tested on: HT29 colon
[4] = tested on: OVCAR-8 ovarian
[5] = tested on: UACC-257 melanoma
[6] = tested on: HOP-62 NSCLC
[7] = tested on: U251 CNS
[8] = tested on: HCT-116 colon
[9] = tested on: MCF7 breast
[10] = tested on: NCI-H226 lung

Row | Compound | TGI [1] | TGI [2] | TGI [3] | TGI [4] | TGI [5] | TGI [6] | TGI [7] | TGI [8] | GI50 [1] | GI50 [9] | TGI [9] | GI50 [2] | GI50 [3] | GI50 [4] | GI50 [6] | GI50 [7] | GI50 [8] | TGI [10] | GI50 [5] | GI50 [10]
1 | CC(C)(C)CC(C)(C)c1cc2c(O)c(c1)Cc1cc(C(C)(C)CC(C)(C)C)cc(c1O)Cc1cc(C(C)(C)CC(C)(C)C)cc(c1O)Cc1cc(C(C)(C)CC(C)(C)C)cc(c1O)Cc1cc(C(C)(C)CC(C)(C)C)cc(c1O)C2 | > 100 µM | > 100 µM | > 100 µM | > 100 µM | > 100 µM | > 100 µM | > 100 µM | > 100 µM | – | – | – | – | – | – | – | – | – | – | – | –
2 | O=C1NC(=O)C(c2ccccc2Cl)=C1Nc1cc(Cl)c(O)c(Cl)c1 | > 25 µM | > 25 µM | > 25 µM | > 25 µM | – | > 25 µM | > 25 µM | > 25 µM | 13.9 µM | > 13.8 µM | > 25 µM | > 18.1 µM | 14.2 µM | 17.6 µM | 14.5 µM | 13.3 µM | 13.6 µM | – | – | –
3 | O=C(CCc1nnc2s/c(=C\c3ccc(Cl)c(Cl)c3)c(=O)n12)Nc1ccc(Cl)c(Cl)c1 | > 100 µM | > 100 µM | > 100 µM | 43.6 µM | > 100 µM | > 100 µM | > 100 µM | > 100 µM | – | – | – | – | – | – | – | – | – | > 100 µM | – | –
4 | COC(=O)c1cc2c3ccccc3n3c(=O)c4cc5ccccc5nc4c(n1)c23 | > 100 µM | > 100 µM | > 100 µM | > 100 µM | > 100 µM | – | > 100 µM | > 100 µM | > 100 µM | > 100 µM | > 100 µM | > 100 µM | > 100 µM | > 100 µM | – | > 100 µM | > 100 µM | > 100 µM | > 100 µM | > 100 µM
5 | CC(C)[O-].CC(C)[O-].O=C1C=C([O-])C(=O)c2ccccc21.O=C1C=C([O-])C(=O)c2ccccc21.[Ti+4] | > 100 µM | > 100 µM | > 100 µM | > 100 µM | > 100 µM | > 100 µM | > 100 µM | > 100 µM | > 100 µM | – | – | 30 µM | 34.9 µM | > 100 µM | > 100 µM | > 68.8 µM | 43.7 µM | > 100 µM | 4.97 µM | 63.9 µM
6 | O=C(O)NC(c1ccccc1)C(NC(=O)c1ccccc1)c1ccccc1 (centres undefined) | > 100 µM | > 100 µM | > 100 µM | > 100 µM | > 100 µM | > 100 µM | > 100 µM | > 100 µM | – | – | – | – | – | – | – | – | – | – | – | –
7 | CC1=C(C(=O)Nc2cc(=O)n(C)c(=O)n2C)C(c2cccc([N+](=O)[O-])c2)C(C(=O)Nc2cc(=O)n(C)c(=O)n2C)=C(C)N1 | 61.7 µM | > 100 µM | > 100 µM | > 100 µM | > 100 µM | > 100 µM | > 100 µM | – | – | – | – | – | – | – | – | – | – | > 100 µM | – | –
8 | CCN(CC)CCCNC(=O)C1COc2cc(-c3cc(=O)c4ccccc4o3)ccc2O1 (centres undefined) | 38.9 µM | 81.4 µM | > 100 µM | > 100 µM | 50.1 µM | > 100 µM | > 100 µM | > 100 µM | – | – | – | – | – | – | – | – | – | > 100 µM | – | –
9 | C[C@]12CCC(=O)C(O)=C1CC[C@@H]1C2CC[C@]2(C)NC(=O)CCC12 (some centres undefined) | > 100 µM | > 100 µM | > 100 µM | > 100 µM | > 100 µM | > 100 µM | > 100 µM | > 100 µM | – | – | – | – | – | – | – | – | – | > 100 µM | – | –
10 | COc1ccc(-c2cc(=O)c3ccccc3o2)cc1N | > 100 µM | > 100 µM | > 100 µM | > 100 µM | > 100 µM | > 100 µM | > 100 µM | > 100 µM | – | – | – | – | – | – | – | – | – | > 100 µM | – | –
11 | CC(=O)OC1CCn2nnc(CO)c21 (centres undefined) | > 100 µM | > 100 µM | > 100 µM | > 100 µM | > 100 µM | – | > 100 µM | > 100 µM | – | – | – | – | – | – | – | – | – | > 100 µM | – | –
12 | O=C(c1ccccc1)c1c(-c2ccccc2)sc2nc3ccccc3nc12 | > 100 µM | > 100 µM | > 100 µM | > 100 µM | > 100 µM | > 100 µM | > 100 µM | > 100 µM | – | – | – | – | – | – | – | – | – | > 100 µM | – | –
13 | CC1=C(C(=O)Nc2ccc(Cl)c(Cl)c2)C(c2cccc(Cl)c2)NC(=O)N1 (centres undefined) | 13.2 µM | 21.2 µM | – | > 37.7 µM | 25.6 µM | 20.5 µM | 17 µM | > 50 µM | 6.48 µM | 2.11 µM | 13.5 µM | 9.42 µM | – | 14.8 µM | 10.4 µM | 8.32 µM | 12 µM | 18.6 µM | 12.2 µM | 7.69 µM
14 | Cc1cccc(C)c1CO | > 100 µM | > 100 µM | > 100 µM | > 100 µM | > 100 µM | > 100 µM | > 100 µM | > 100 µM | – | – | – | – | – | – | – | – | – | > 100 µM | – | –
15 | CCOC(=O)Cc1ccc2c(c1O)C(=O)c1c(ccc(CC(=O)OCC)c1O)C2=O | > 100 µM | > 100 µM | > 100 µM | > 100 µM | > 100 µM | > 100 µM | > 100 µM | > 100 µM | – | – | – | – | – | – | – | – | – | > 100 µM | – | –
16 | Cc1cc(-c2nc3sccn3c2/C=N/N=C(N)N)c(C)s1 | 28.5 µM | – | 33.8 µM | 57 µM | 36.2 µM | 32.1 µM | 32.9 µM | 25.3 µM | 14.3 µM | – | – | – | 15.6 µM | 29.4 µM | 17.4 µM | 18 µM | 12.7 µM | 31.7 µM | 18.9 µM | 15.4 µM
17 | O=C(O)Cc1cc(=O)[nH]c2c1/C(=N/O)CCC2 | > 100 µM | – | > 100 µM | > 100 µM | > 100 µM | – | > 100 µM | – | – | – | – | – | – | – | – | – | – | > 100 µM | – | –
18 | COc1ccc(C(=O)C(C(=O)CC(=O)Nc2cccc(C(F)(F)F)c2)c2ccc(OC)cc2)cc1 (centres undefined) | > 100 µM | > 100 µM | > 100 µM | > 100 µM | > 100 µM | > 100 µM | > 100 µM | > 100 µM | – | – | – | – | – | – | – | – | – | > 100 µM | – | –
19 | CN1CC(=O)N(C)c2ncn(Cc3ccccc3)c2C1=O | > 100 µM | > 100 µM | > 100 µM | > 100 µM | – | – | > 100 µM | – | – | – | – | – | – | – | – | – | – | – | – | –
20 | COC(=O)C1=C(O)c2cc(-c3ccccc3)c(-c3ccccc3)c(C#N)c2NC(=O)C1 | > 100 µM | > 100 µM | > 100 µM | > 100 µM | > 100 µM | 96.8 µM | > 100 µM | > 100 µM | – | – | – | – | – | – | – | – | – | – | – | –
